Measured values reported in PMC6204821, “Inhibitory effect of microalgae and cyanobacteria extracts on influenza virus replication and neuraminidase activity” (PeerJ, 2018).

Legend:
in vitro = conditions: dog
Method: One hundred microliters of 2.0 × 10^4 MDCK cells were seeded into the 96-well culture plates (flat bottom) and grown for 24 h at 37 °C in a 5% CO2 atmosphere, then, the extracts were added with a final concentration of 1 mg/mL in DMEM. […] The extracts were diluted in culture medium DMEM, the DMSO final concentration was equal to 1.0% (v/v). After 48 h of cells incubation with extracts or vehicle (DMSO), a freshly prepared XTT (Sigma) solution was added, as specified by the manufacturer’s instructions. […] The cell viability was calculated by the comparison between absorbance (A475 nm–A660 nm) from treated (A) and untreated (B) cells using the formula: A/B × 100. Tests were carried out performing three replicates (n = 3).

[1] = tested on: A(H3N2)-WT (A/Switzerland/9715293/2013); test: microbe, parasite or virus in culture; type: cell-based; conditions: Influenza A virus, H3N2, MDCK, read-out: EC50 A(H3N2)-WT
[2] = tested on: A(H1N1)pdm09-WT (A/California/04/2009); test: microbe, parasite or virus in culture; type: cell-based; conditions: Influenza A virus, H1N1, MDCK, read-out: EC50 A(H1N1)pdm09-WT
[3] = molecular target: neuraminidase of B/Perth/211/2001 Yam (WT) (Influenza B virus, UniProt Q3S340); test: biochemical; conditions: read-out: NA Activity (%)
neuraminidase of B/Perth/211/2001 Yam (WT), sequence (Q3S340 1-466): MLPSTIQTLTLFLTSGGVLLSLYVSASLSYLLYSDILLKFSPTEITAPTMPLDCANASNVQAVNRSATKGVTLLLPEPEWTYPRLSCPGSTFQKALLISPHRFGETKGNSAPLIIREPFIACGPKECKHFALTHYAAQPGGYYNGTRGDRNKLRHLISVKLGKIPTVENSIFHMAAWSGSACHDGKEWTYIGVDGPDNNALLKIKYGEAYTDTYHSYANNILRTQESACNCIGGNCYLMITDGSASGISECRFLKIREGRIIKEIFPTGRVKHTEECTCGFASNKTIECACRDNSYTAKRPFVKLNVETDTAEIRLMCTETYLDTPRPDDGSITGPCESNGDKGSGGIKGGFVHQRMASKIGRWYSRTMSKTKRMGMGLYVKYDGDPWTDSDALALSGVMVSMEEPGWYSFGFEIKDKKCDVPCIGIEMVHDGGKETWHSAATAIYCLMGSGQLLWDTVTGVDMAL

| Structure (SMILES) | CC50 at 48 h (in vitro) [µM] | EC50 [1] [µM] | EC50 [2] [µM] | activity at 10 pM [3] [%] | activity at 0.0001 µM [3] [%] | activity at 0.001 µM [3] [%] | activity at 0.01 µM [3] [%] | activity at 0.1 µM [3] [%] | activity at 1 µM [3] [%] |
| --- | --- | --- | --- | --- | --- | --- | --- | --- | --- |
| CCC(CC)O[C@@H]1C=C(C(=O)O)C[C@H](N)[C@H]1NC(C)=O [OST-car, Oseltamivir carboxylate] | 2130 | 0.032 | 0.012 | – | – | – | – | – | – |
| CCOC(=O)C1=C[C@@H](OC(CC)CC)[C@H](NC(C)=O)[C@@H](N)C1 [Oseltamivir] | – | – | – | 104 | 118 | 92 | 32 | 11 | 11 |
